Like-named read-outs stand apart in the source and are kept apart here. Numbered stars: 1 amine (or outer) side, 2 acyl side, 3 side chain; on linkers, the order of the positions; unused ones are H or OH. Square brackets hold non-standard residues; d marks the D form. Side chains are listed from the residue outwards. Peptide text beside a SMILES is read from it. * marks the point of attachment. C20 diacid = O=C(O)CCCCCCCCCCCCCCCCCCC(=O)*; γGlu = O=C(O)[C@H](CCC(=O)[*:2])N[*:1]; AEEA = NCCOCCOCC(=O)O; Aib = CC(C)(N)C(=O)O
Experiments:
[1] = Fibril formation of crude library peptides (Thioflavin T); type: physicochemical; design: key: average ThT fluorescence emission at 480 nm (ex 450 nm), raw units; conditions: Physical stability of peptides
Method in brief: (§1)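 Crude peptides at 267 μM in 50 mM sodium acetate pH 4.0 or 50 mM sodium phosphate pH 7.0, pre-incubated 1-2 h at room temperature, then 4 μM final ThT added. Turbidity read first as A600. ThT fluorescence (ex 450/em 480 nm) read every 10 min for 72 h at 40° C, with 5 min shaking before each read; fibril formation = average emission.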

[2] = Turbidity of crude library peptides (absorbance at 600 nm); type: physicochemical; conditions: Physical stability of peptides
Method in brief: as §1

[3] = target: GLP1R (Homo sapiens, UniProt P43220); assay: hGLP1R potency, cAMP accumulation in CHO-K1 cells stably overexpressing hGLP1R; type: cell-based; design: host or cells: CHO-K1; conditions: for SCTR EC50/GLP1R EC50 ratio: cAMP accumulation in CHO-K1 cells
Method in brief: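 Thawed cells go straight into buffer containing 0.5 mM IBMX and 0.05% casein, get graded compound doses for 30 min at room temperature, and are then assayed for accumulated cAMP by time-resolved FRET. Human GLP-1(7-36) serves as positive control; EC50 is derived by nonlinear regression.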

[4] = target: SCTR (Homo sapiens, UniProt P47872); assay: hSCTR potency, cAMP accumulation in CHO-K1 cells stably overexpressing hSCTR; type: cell-based; design: alternatively Euroscreen ES-712-AF; FAST-0161L; host or cells: CHO-K1
Method in brief: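 Read-out is TR-FRET cAMP detection, recorded one hour after reagent addition, in CHO-K1 cells stably overexpressing hSCTR. Cells in DPBS containing 0.05% casein and 0.5 mM IBMX are exposed to graded peptide doses for 30 min at room temperature, with human secretin as reference agonist.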

[5] = cAMP accumulation, CHO-K1 cells overexpressing hGLP1R, read-out: hGLP1R pEC50 (converted)
[6] = selectivity for hGLP1R over hSCTR
[7] = cAMP accumulation, CHO-K1 cells overexpressing hSCTR, read-out: hSCTR pEC50 (converted)
[8] = cAMP accumulation, CHO-K1 cells stably overexpressing hGLP1R, read-out: hGLP1R potency (pEC50) (converted)
[9] = selectivity ratio, hSCTR vs hGLP1R
[10] = cAMP accumulation, CHO-K1 cells stably overexpressing hSCTR, read-out: hSCTR potency (pEC50) (converted)

Chain of GLP1R (P43220 24-463): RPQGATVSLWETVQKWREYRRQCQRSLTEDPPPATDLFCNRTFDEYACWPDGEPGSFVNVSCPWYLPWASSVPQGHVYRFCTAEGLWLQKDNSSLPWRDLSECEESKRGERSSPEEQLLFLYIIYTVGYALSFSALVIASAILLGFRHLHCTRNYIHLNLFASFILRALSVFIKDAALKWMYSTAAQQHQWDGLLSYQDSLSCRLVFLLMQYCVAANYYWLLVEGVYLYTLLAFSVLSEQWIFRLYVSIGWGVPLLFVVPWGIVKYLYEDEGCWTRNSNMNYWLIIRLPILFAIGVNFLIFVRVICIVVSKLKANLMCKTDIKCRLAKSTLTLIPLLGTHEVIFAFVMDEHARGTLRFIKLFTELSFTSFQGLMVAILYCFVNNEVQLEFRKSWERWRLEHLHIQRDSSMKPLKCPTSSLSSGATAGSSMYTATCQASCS
Chain of SCTR (P47872 23-440): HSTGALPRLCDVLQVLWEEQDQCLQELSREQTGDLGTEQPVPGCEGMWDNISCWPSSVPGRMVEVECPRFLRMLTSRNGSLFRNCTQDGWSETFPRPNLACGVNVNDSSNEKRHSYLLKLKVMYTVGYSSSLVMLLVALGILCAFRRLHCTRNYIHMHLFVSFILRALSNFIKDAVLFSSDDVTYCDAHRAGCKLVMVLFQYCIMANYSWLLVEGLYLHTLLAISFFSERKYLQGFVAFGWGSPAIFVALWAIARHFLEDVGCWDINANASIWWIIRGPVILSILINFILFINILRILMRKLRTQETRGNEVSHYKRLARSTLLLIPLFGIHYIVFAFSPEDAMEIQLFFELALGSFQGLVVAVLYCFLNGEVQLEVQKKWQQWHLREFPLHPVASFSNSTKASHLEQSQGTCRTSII

Compound | Fibril formation [1] | Turbidity (pH 7) [2] | EC50 [3, 5] [nM] | SCTR EC50/GLP1R EC50 ratio [3, 6] | EC50 [4, 7] [nM] | EC50 [3, 8] [nM] | SCTR EC50/GLP1R EC50 ratio [3, 9] | EC50 [4, 10] [nM] | Selectivity ([3]; SCTR EC50/GLP1R EC50 ratio) | EC50 ([3]; cAMP accumulation, CHO-K1 cells overexpressing hGLP1R, read-out: pEC50 hGLPR1 (converted)) [nM] | EC50 ([4]; cAMP accumulation, CHO-K1 cells overexpressing hSCTR, read-out: pEC50 hSCTR (converted)) [nM] | EC50 [3] [nM] | EC50 [4] [nM]
CC(C)C[C@H](NC(=O)[C@H](Cc1ccccc1)NC(=O)[C@H](CCCNC(=N)N)NC(=O)[C@H](CCC(N)=O)NC(=O)[C@H](CC(C)C)NC(=O)C(C)(C)NC(=O)[C@H](C)NC(=O)[C@H](CCC(=O)O)NC(=O)[C@H](CCC(=O)O)NC(=O)[C@H](CCCCNC(=O)COCCOCCNC(=O)COCCOCCNC(=O)CC[C@H](NC(=O)CCCCCCCCCCCCCCCCCCC(=O)O)C(=O)O)NC(=O)[C@H](CC(C)C)NC(=O)[C@@H]1CCCN1C(=O)[C@H](CO)NC(=O)[C@@H](NC(=O)[C@H](CC(=O)O)NC(=O)[C@H](CO)NC(=O)[C@@H](NC(=O)[C@H](Cc1ccccc1)NC(=O)[C@@H](NC(=O)CNC(=O)[C@H](CCC(=O)O)NC(=O)C(C)(C)NC(=O)[C@@H](N)Cc1c[nH]cn1)[C@@H](C)O)[C@@H](C)O)C(C)C)C(=O)N[C@@H](CCC(=O)O)C(=O)N[C@@H](Cc1c[nH]cn1)C(=O)N[C@@H](CC(C)C)C(=O)N[C@H](C(N)=O)C(C)C [compound 140] (H-H[Aib]EGTFTSDVSPLK([AEEA-AEEA-γGlu-C20 diacid])EEA[Aib]LQRFLEHLV-NH2) | 2733 | 0.08 | 1.26 | 14381 | 20000 |  |  |  |  |  |  |  | 
CC[C@H](C)[C@H](NC(=O)[C@H](Cc1ccccc1)NC(=O)[C@H](CCCNC(=N)N)NC(=O)[C@H](CCC(N)=O)NC(=O)[C@H](CC(C)C)NC(=O)[C@H](C)NC(=O)[C@H](C)NC(=O)CNC(=O)[C@H](CCC(=O)O)NC(=O)[C@H](CC(C)C)NC(=O)[C@H](CC(C)C)NC(=O)[C@H](Cc1ccccc1)NC(=O)[C@H](CO)NC(=O)[C@H](Cc1c[nH]c2ccccc12)NC(=O)[C@H](CC(=O)O)NC(=O)[C@H](CO)NC(=O)[C@@H](NC(=O)[C@H](Cc1ccccc1)NC(=O)[C@@H](NC(=O)CNC(=O)[C@H](CCC(=O)O)NC(=O)C(C)(C)NC(=O)[C@@H](N)Cc1c[nH]cn1)[C@@H](C)O)[C@@H](C)O)C(=O)N[C@@H](CCC(N)=O)C(=O)N[C@@H](Cc1c[nH]c2ccccc12)C(=O)N[C@@H](CC(C)C)C(=O)N[C@H](C(N)=O)C(C)C [compound 190] (H-H[Aib]EGTFTSDWSFLLEGAALQRFIQWLV-NH2) | 260000 | 0.61 |  |  |  | 0.0631 | 1844 | 100 |  |  |  |  | 
CC(C)C[C@H](NC(=O)[C@H](Cc1ccccc1)NC(=O)[C@H](CCCNC(=N)N)NC(=O)[C@H](CCC(N)=O)NC(=O)C(C)(C)NC(=O)[C@H](C)NC(=O)[C@H](C)NC(=O)[C@H](CCC(=O)O)NC(=O)[C@H](CCC(=O)O)NC(=O)[C@H](CCCCNC(=O)COCCOCCNC(=O)COCCOCCNC(=O)CC[C@H](NC(=O)CCCCCCCCCCCCCCCCCCC(=O)O)C(=O)O)NC(=O)[C@H](CC(C)C)NC(=O)[C@H](Cc1ccccc1)NC(=O)[C@H](CO)NC(=O)[C@@H](NC(=O)[C@H](CC(=O)O)NC(=O)[C@H](CO)NC(=O)[C@@H](NC(=O)[C@H](Cc1ccccc1)NC(=O)[C@@H](NC(=O)CNC(=O)[C@H](CCC(=O)O)NC(=O)C(C)(C)NC(=O)[C@@H](N)Cc1c[nH]cn1)[C@@H](C)O)[C@@H](C)O)C(C)C)C(=O)N[C@@H](CCC(=O)O)C(=O)N[C@@H](Cc1c[nH]cn1)C(=O)N[C@@H](CC(C)C)C(=O)N[C@H](C(N)=O)C(C)C [compound 37] (H-H[Aib]EGTFTSDVSFLK([AEEA-AEEA-γGlu-C20 diacid])EEAA[Aib]QRFLEHLV-NH2) | 12367 | 0.08 |  |  |  |  |  |  | 158052 | 0.0126 | 2000 |  | 
CC[C@H](C)[C@H](NC(=O)[C@H](Cc1ccccc1)NC(=O)[C@H](CCCNC(=N)N)NC(=O)[C@H](CCC(N)=O)NC(=O)[C@H](CC(C)C)NC(=O)[C@H](C)NC(=O)[C@H](C)NC(=O)CNC(=O)[C@H](CCC(=O)O)NC(=O)[C@H](CC(C)C)NC(=O)[C@H](CC(C)C)NC(=O)[C@H](Cc1ccc(O)cc1)NC(=O)[C@H](CO)NC(=O)[C@H](Cc1c[nH]c2ccccc12)NC(=O)[C@H](CC(=O)O)NC(=O)[C@H](CO)NC(=O)[C@@H](NC(=O)[C@H](Cc1ccccc1)NC(=O)[C@@H](NC(=O)CNC(=O)[C@H](CCC(=O)O)NC(=O)C(C)(C)NC(=O)[C@@H](N)Cc1c[nH]cn1)[C@@H](C)O)[C@@H](C)O)C(=O)N[C@@H](CCC(N)=O)C(=O)N[C@@H](Cc1c[nH]c2ccccc12)C(=O)N[C@@H](CC(C)C)C(=O)N[C@H](C(N)=O)C(C)C [compound 189] (H-H[Aib]EGTFTSDWSYLLEGAALQRFIQWLV-NH2) | 94029 | 0.37 |  |  |  | 0.0158 | 10195 | 158 |  |  |  |  | 
CC(C)C[C@H](NC(=O)[C@H](Cc1ccccc1)NC(=O)[C@H](CCCNC(=N)N)NC(=O)[C@H](CCC(N)=O)NC(=O)[C@H](CCC(=O)O)NC(=O)C(C)(C)NC(=O)[C@H](C)NC(=O)[C@H](CCC(=O)O)NC(=O)[C@H](CCC(=O)O)NC(=O)[C@H](CCCCNC(=O)COCCOCCNC(=O)COCCOCCNC(=O)CC[C@H](NC(=O)CCCCCCCCCCCCCCCCCCC(=O)O)C(=O)O)NC(=O)[C@H](CC(C)C)NC(=O)[C@H](Cc1ccc(O)cc1)NC(=O)[C@H](CO)NC(=O)[C@@H](NC(=O)[C@H](CC(=O)O)NC(=O)[C@H](CO)NC(=O)[C@@H](NC(=O)[C@H](Cc1ccccc1)NC(=O)[C@@H](NC(=O)CNC(=O)[C@H](CCC(=O)O)NC(=O)C(C)(C)NC(=O)[C@@H](N)Cc1c[nH]cn1)[C@@H](C)O)[C@@H](C)O)C(C)C)C(=O)N[C@@H](CCC(=O)O)C(=O)N[C@@H](Cc1c[nH]cn1)C(=O)N[C@@H](CC(C)C)C(=O)N[C@H](C(N)=O)C(C)C [compound 150] (H-H[Aib]EGTFTSDVSYLK([AEEA-AEEA-γGlu-C20 diacid])EEA[Aib]EQRFLEHLV-NH2) | 2766 | 0.08 | 0.00501 | 693266 | 3160 |  |  |  |  |  |  |  | 
CC[C@H](C)[C@H](NC(=O)[C@H](Cc1ccccc1)NC(=O)[C@H](CCCNC(=N)N)NC(=O)[C@H](CCC(N)=O)NC(=O)[C@H](CC(C)C)NC(=O)[C@H](C)NC(=O)[C@H](C)NC(=O)CNC(=O)[C@H](CCC(=O)O)NC(=O)[C@H](CC(C)C)NC(=O)[C@H](CC(C)C)NC(=O)[C@H](CCCNC(=N)N)NC(=O)[C@H](CO)NC(=O)[C@@H]1CCCN1C(=O)[C@H](CC(=O)O)NC(=O)[C@H](CO)NC(=O)[C@@H](NC(=O)[C@H](Cc1ccccc1)NC(=O)[C@@H](NC(=O)CNC(=O)[C@H](CCC(=O)O)NC(=O)C(C)(C)NC(=O)[C@@H](N)Cc1c[nH]cn1)[C@@H](C)O)[C@@H](C)O)C(=O)N[C@@H](CCC(N)=O)C(=O)N[C@@H](Cc1c[nH]c2ccccc12)C(=O)N[C@@H](CC(C)C)C(=O)N[C@H](C(N)=O)C(C)C [compound 124] (H-H[Aib]EGTFTSDPSRLLEGAALQRFIQWLV-NH2) | 1370 | 0.12 | 2.51 | 2086 | 5010 |  |  |  |  |  |  |  | 
CC(C)C[C@H](NC(=O)[C@H](Cc1ccccc1)NC(=O)[C@H](CCCNC(=N)N)NC(=O)[C@H](CCC(N)=O)NC(=O)[C@@H](NC(=O)[C@H](C)NC(=O)[C@H](C)NC(=O)[C@@H](NC(=O)[C@H](CCC(=O)O)NC(=O)[C@H](CCCCNC(=O)COCCOCCNC(=O)COCCOCCNC(=O)CC[C@H](NC(=O)CCCCCCCCCCCCCCCCCCC(=O)O)C(=O)O)NC(=O)[C@H](CC(C)C)NC(=O)[C@@H](NC(=O)[C@H](CO)NC(=O)[C@@H](NC(=O)[C@H](CC(=O)O)NC(=O)[C@H](CO)NC(=O)[C@@H](NC(=O)[C@H](Cc1ccccc1)NC(=O)[C@@H](NC(=O)CNC(=O)[C@H](CCC(=O)O)NC(=O)C(C)(C)NC(=O)[C@@H](N)Cc1c[nH]cn1)[C@@H](C)O)[C@@H](C)O)C(C)C)[C@@H](C)O)[C@@H](C)O)[C@@H](C)O)C(=O)N[C@@H](CCC(=O)O)C(=O)N[C@@H](Cc1c[nH]cn1)C(=O)N[C@@H](CC(C)C)C(=O)N[C@H](C(N)=O)C(C)C [compound 93] (H-H[Aib]EGTFTSDVSTLK([AEEA-AEEA-γGlu-C20 diacid])ETAATQRFLEHLV-NH2) | 6728 | 0.08 |  | 36771 |  |  |  |  |  |  |  | 0.01 | 316
